# Where no end group is shown, it is not given here.
# Legend:
# PDZD7 PDZ1 (81-167) = target: T1, PDZD7 PDZ1 (81-167) (Mus musculus, UniProt E9Q9W7); test: NMR titration of PDZ1 with ADGRV1 ligands; assay type: binding, murine; settings: NMR titration (1H-15N HSQC CSP), Tris HCl pH 7.5 (50 mM), 25°C; SD of Kd over at least ten shifting peaks
# T1 construct: (Uniprot entry E9Q9W7-1); PDZ1 (81-167); GST (followed by TEV site) (N, cleaved yes); made in house; host or cells: E. coli BL21 DE3
# Experimental: All experiments were recorded at 25°C on a Bruker 800 MHz spectrometer equipped with a triple resonance ^1H{^13C/^15N} cryoprobe. The ^1H, ^15 N and ^13C backbone resonances assignment of PDZ1ext was carried out using 3D HNCA, HNCACB, HNCO, HNCOCA experiments (Tris HCl buffer adjusted to pH 6). The 2D ^1H-^15N HSQC spectra used to compare PDZ1, PDZ1ext, PDZ2 and PDZ2ext were recorded in Tris HCl pH 7.5 (50 mM). The 2D ^1H-^15N HSQC spectra used to compare PDZ1ext, PDZ2ext and P1P2 were recorded in Phosphate Buffer pH 6.5 (50 mM). Titration experiments of PDZ1 (WT), PDZ1ext (WT) and PDZ1ext (G103R) against ADGRV1pbm peptide were performed in Tris HCl pH 7.5 (50 mM). Averaged Chemical Shifts Perturbations (CSP) were calculated as: Δδavg = ((Δδ(^1H))^2+(Δδ(^15N)*0.159)^2)^½. […]
# We monitored the interaction between PDZD7 constructs and a peptide (ADGRV1pbm) corresponding to the last 13 residues of ADGRV1, encompassing its PBM (sequence VELRRIPIADTHL-COOH; PBM underlined). We measured apparent Kd values of our constructs towards ADGRV1pbm using several biophysical methods (NMR, fluorescence, MicroScale Thermophoresis (MST)) (Table 1; Supplementary Figure S3–S5). […]
# PDZD7 P1P2 (81-313) = target: T2, PDZD7 P1P2 (81-313) (Mus musculus, UniProt E9Q9W7); test: Fluorescence titration of PDZ tandem P1P2; assay type: binding, murine; settings: fluorescence titration (Trp, ex 295 nm, em 346-349 nm); P1P2 2 µM in Phosphate Buffer pH 6.6 (50 mM); error from quality of fit
# T2 construct: PDZ2ext (206-313), P1P2 (81-313); GST (followed by TEV site) (N, cleaved yes); made in house; host or cells: E. coli BL21 DE3
# Experimental: Fluorescence titrations were performed on a Jasco V-730 spectrometer using quartz cell 109.004F-QS (Hellma Analytics) with an optical path of 10 mm and with thick side to reduce the inner filter effect. PDZ1ext and P1P2 were prepared in Phosphate Buffer pH 6.6 (50 mM) at 6 and 2 µM respectively, while PDZ2ext was prepared in Tris HCl pH 7.5 (50 mM) at 5 µM. Variations in the quantum yield of fluorescence of tryptophans from the sample were monitored upon progressive addition of buffered ADGRV1pbm peptide. After peptide addition, the sample is homogenized by in-spectrometer magnet agitation for 30 s. The sample is left to rest for an additional 60 s before measurement. Excitation is set at 295 nm and fluorescence was measured at the maximum emission wavelength (346-349 nm) of the unbound form with a 5 nm bandwidth for both. Titration curves were fitted using the following formula: y = Fp∗p0+(Fx-Fp)∗0.5∗(R∗I0+(1-R)∗x + K-((R∗I0+(1-R)∗x + K)^2-4∗R∗(I0-x)∗x)^1/2), where p0 is the initial protein concentration, I0 the peptide stock concentration, R the p0/I0 ratio, x the volume of added peptide in µl, Fp the fluorescence of PDZ constructs, Fx the fluorescence of the complex, and K the Kd. […]
# We monitored the interaction between PDZD7 constructs and a peptide (ADGRV1pbm) corresponding to the last 13 residues of ADGRV1, encompassing its PBM (sequence VELRRIPIADTHL-COOH; PBM underlined). […]
# T2 sequence (E9Q9W7 81-313): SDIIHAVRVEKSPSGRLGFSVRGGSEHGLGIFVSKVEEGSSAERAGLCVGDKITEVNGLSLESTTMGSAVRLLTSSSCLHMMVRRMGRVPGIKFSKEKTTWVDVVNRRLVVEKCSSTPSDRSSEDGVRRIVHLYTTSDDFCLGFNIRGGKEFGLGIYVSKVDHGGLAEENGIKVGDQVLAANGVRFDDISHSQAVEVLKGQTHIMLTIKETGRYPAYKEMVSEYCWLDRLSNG
# T1 sequence (E9Q9W7 81-167): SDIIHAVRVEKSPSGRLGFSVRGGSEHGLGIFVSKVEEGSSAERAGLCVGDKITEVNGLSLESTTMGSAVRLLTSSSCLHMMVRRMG
sequence,measurement,setting,value
VELRRIPIADTHL [ADGRV1pbm],Kd,PDZD7 PDZ1 (81-167),1310 µM
same,Kd,PDZD7 P1P2 (81-313),1.6 ± 0.3 µM

# Source: article PMC9274004, “Deciphering the Molecular Interaction Between the Adhesion G Protein-Coupled Receptor ADGRV1 and its PDZ-Containing Regulator PDZD7” (Frontiers in Molecular Biosciences, 2022)
